Laboratory results: ChEMBL document CHEMBL1201862, “PubChem BioAssay data set” (2004)
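A five-concentration, 48-hour dose response in 96-well plates underlies each endpoint, interpolated linearly between surrounding concentrations. GI50 is the concentration that inhibits growth by half.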 Calls of active or inactive are those of the source. No stated cut-off is given here; in the data, active = GI50 up to about 1.1 µM and inactive = higher. Numbered stars: 1 amine (or outer) side, 2 acyl side, 3 side chain; on linkers, the order of the positions; unused ones are H or OH. Square brackets hold non-standard residues; d marks the D form. Peptide text beside a SMILES is read from it. X55 = CC[C@H](C)[C@H](OC(=O)[C@@H](C)[C@@H](CC)N[*:1])C(=O)[*:2]; X31 = C[C@H](N[*:1])C(=O)C(C)(C)C(=O)[*:2]; NMeY = CN[C@@H](Cc1ccc(O)cc1)C(=O)O; NMeL = CN[C@@H](CC(C)C)C(=O)O; NMeV = CN[C@H](C(=O)O)C(C)C

Legend:
Experiment in all cases: DTP human tumour cell line panel, 48 h
EKVX = system: EKVX
SK-MEL-2 = system: SK-MEL-2
CCRF-CEM = system: CCRF-CEM
NCI-H522 = system: NCI-H522
A549 = system: A549
OVCAR-4 = system: OVCAR-4
PC-3 = system: PC-3
SK-OV-3 = system: SK-OV-3
ACHN = system: ACHN
DMS-273 = system: DMS-273
HT-29 = system: HT-29
OVCAR-3 = system: OVCAR-3
HCC 2998 = system: HCC 2998
SK-MEL-5 = system: SK-MEL-5
HOP-92 = system: HOP-92
KM12 = system: KM12
SNB-19 = system: SNB-19
SN12C = system: SN12C
SR = system: SR
MDA-N = system: MDA-N

Row | Structure (SMILES) | GI50 (EKVX) | GI50 (SK-MEL-2) | GI50 (CCRF-CEM) | GI50 (NCI-H522) | GI50 (A549) | GI50 (OVCAR-4) | GI50 (PC-3) | GI50 (SK-OV-3) | GI50 (ACHN) | GI50 (DMS-273) | GI50 (HT-29) | GI50 (OVCAR-3) | GI50 (HCC 2998) | GI50 (SK-MEL-5) | GI50 (HOP-92) | GI50 (KM12) | GI50 (SNB-19) | GI50 (SN12C) | GI50 (SR) | GI50 (MDA-N)
1 | CC1=C(C(=O)Nc2ccc(Cl)c(C(=O)OC(C)C)c2)SCCO1 | 71.4 µM (inactive) | 68.4 µM (inactive) | 48.6 µM (inactive) | 36.4 µM (inactive) | 50.1 µM (inactive) | 56.8 µM (inactive) | > 100 µM (inactive) | > 81.1 µM (inactive) | > 100 µM (inactive) | 55.6 µM (inactive) | 25.7 µM (inactive) | 86.1 µM (inactive) | 54.8 µM (inactive) | 50.1 µM (inactive) | 66.2 µM (inactive) | 80.9 µM (inactive) | 70.5 µM (inactive) | > 100 µM (inactive) | – | –
2 | CCOc1ccccc1NC(=O)CCC(=O)OC | > 100 µM (inactive) | > 100 µM (inactive) | > 45.6 µM (inactive) | > 100 µM (inactive) | > 100 µM (inactive) | > 100 µM (inactive) | – | > 100 µM (inactive) | > 100 µM (inactive) | > 100 µM (inactive) | > 100 µM (inactive) | > 100 µM (inactive) | > 100 µM (inactive) | > 100 µM (inactive) | > 100 µM (inactive) | > 100 µM (inactive) | > 100 µM (inactive) | > 100 µM (inactive) | > 47 µM (inactive) | –
3 | C/C=C/C1(C)/C(=N\O)C(C)(CCC)C(=O)N1O (stereo not given) | > 100 µM (inactive) | > 100 µM (inactive) | > 100 µM (inactive) | > 100 µM (inactive) | > 100 µM (inactive) | > 100 µM (inactive) | – | > 100 µM (inactive) | > 100 µM (inactive) | > 100 µM (inactive) | > 100 µM (inactive) | > 100 µM (inactive) | > 100 µM (inactive) | > 100 µM (inactive) | > 100 µM (inactive) | > 100 µM (inactive) | > 100 µM (inactive) | > 100 µM (inactive) | > 100 µM (inactive) | –
4 | Nc1nc(Cl)cc(NCCCCCCNc2cc(Cl)nc(N)n2)n1 | > 100 µM (inactive) | 87.9 µM (inactive) | 59.6 µM (inactive) | 27.7 µM (inactive) | 60.7 µM (inactive) | 88.9 µM (inactive) | – | > 100 µM (inactive) | 2.88 µM (inactive) | > 100 µM (inactive) | > 100 µM (inactive) | 34 µM (inactive) | > 100 µM (inactive) | 13.1 µM (inactive) | 25.4 µM (inactive) | > 100 µM (inactive) | > 100 µM (inactive) | > 100 µM (inactive) | 42 µM (inactive) | –
5 | COc1ccc(C2CCC(Cl)(OC)CC2C=O)cc1 (stereo not given) | > 100 µM (inactive) | 21.9 µM (inactive) | 29.7 µM (inactive) | 64.7 µM (inactive) | 61.5 µM (inactive) | > 100 µM (inactive) | – | > 100 µM (inactive) | 95.9 µM (inactive) | 53.7 µM (inactive) | 50.7 µM (inactive) | 94.2 µM (inactive) | > 100 µM (inactive) | 58.7 µM (inactive) | 29.9 µM (inactive) | > 100 µM (inactive) | 73.6 µM (inactive) | > 100 µM (inactive) | 41.1 µM (inactive) | –
6 | Oc1cc(-c2ccccc2)nc2cc3c(cc12)OCO3 | 15.6 µM (inactive) | 19.5 µM (inactive) | 12.2 µM (inactive) | 3.93 µM (inactive) | 14 µM (inactive) | > 97.3 µM (inactive) | 30.2 µM (inactive) | 6.92 µM (inactive) | 15.2 µM (inactive) | 11.7 µM (inactive) | 7.18 µM (inactive) | 10 µM (inactive) | 15.6 µM (inactive) | 3.52 µM (inactive) | 3.98 µM (inactive) | 1.54 µM (inactive) | 20 µM (inactive) | 12.8 µM (inactive) | 3.36 µM (inactive) | 4.11 µM (inactive)
7 | CC[C@H](C)[C@@H]1OC(=O)[C@@H](C)[C@@H](CC)NC(=O)[C@H](C)NC(=O)C(C)(C)C(=O)[C@H](C)NC(=O)[C@H](Cc2ccc(OC)cc2)N(C)C(=O)[C@H](C(C)C)N(C)C(=O)CNC(=O)[C@H](CC(C)C)N(C)C(=O)CNC1=O [DOLASTATIN 11] (cyclo(A[X55]G[NMeL]G[NMeV][NMeY](Me)[X31])) | 0.102 µM (active) | 0.0787 µM (active) | 0.0274 µM (active) | 0.00607 µM (active) | 0.0175 µM (active) | 0.0507 µM (active) | 0.0849 µM (active) | 0.229 µM (active) | 0.0327 µM (active) | 0.01 µM (active) | 0.0264 µM (active) | 0.0413 µM (active) | 0.0188 µM (active) | 0.0247 µM (active) | 0.0752 µM (active) | 0.4 µM (active) | 0.185 µM (active) | 0.194 µM (active) | 0.0355 µM (active) | 0.0855 µM (active)
